Target: FKBP12 (Homo sapiens, UniProt P62942)
Test: Ki test procedure: inhibition of peptidyl-prolyl isomerase (rotamase) activity, chymotrypsin-coupled assay
Type: biochemical
Details: FKBP rotamase, substrate N-succinyl-Ala-Ala-Pro-Phe-p-nitroanilide; read-out: Ki (apparent Ki, rotamase inhibition)
Text: The inhibition of the prolyl peptidyl cis-trans isomerase activity of FKBP may be measured as an indicator of this affinity.
Inhibition of the peptidyl-prolyl isomerase (rotamase) activity of the compounds used in the inventive methods and pharmaceutical compositions can be evaluated by known methods described in the literature (Harding et al., Nature, 1989, 341:758-760; Holt et al. J. Am. Chem. Soc., 115:9923-9938).
The cis-trans isomerization of an alanine-proline bond in a model substrate, N-succinyl-Ala—Ala—Pro—Phe- p-nitroanilide, is monitored spectrophotometrically in a chymotrypsin-coupled assay, which releases para-nitroanilide from the trans form of the substrate. The inhibition of this reaction caused by the addition of different concentrations of inhibitor is determined, and the data is analyzed as a change in first-order rate constant as a function of inhibitor concentration to yield the apparent Ki values.
In a plastic cuvette are added […] of ice cold assay buffer (25 mM HEPES, pH 7.8, 100 mM NaCl), […] of FKBP (2.5 mM in 10 mM Tris-Cl pH 7.5, 100 mM NaCl, 1 mM dithiothreitol), […] of chymotrypsin (50 mg/ml in 1 mM HCl) and […] of test compound at various concentrations in dimethyl sulfoxide. The reaction is initiated by the addition of 5 mL of substrate (succinyl-Ala—Phe—Pro—Phe-para-nitroanilide, 5 mg/mL in 2.35 mM LiCl in trifluoroethanol).
The absorbance at 390 nm versus time is monitored for 90 seconds using a spectrophotometer and the rate constants are determined from the absorbance versus time data files.

Chain of FKBP12 (P62942 whole entry, species assumed): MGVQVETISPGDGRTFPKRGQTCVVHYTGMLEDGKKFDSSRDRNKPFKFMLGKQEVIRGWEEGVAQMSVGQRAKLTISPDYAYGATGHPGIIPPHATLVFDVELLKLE

Point of comparison: `O=C(C(=O)N1CCCCC1C(=O)OCCCCc1ccccc1)c1ccccc1` (centres unmarked) [Compound 13], Ki 350 nM. Against it:
- O=C(C(=O)N1CCCCC1C(=O)OCc1ccccc1)c1ccccc1 (centres unmarked) [Compound 10] — 4.3-fold higher, 1500 nM
- O=C(C(=O)N1CCCCC1C(=O)OCCc1ccccc1)c1ccccc1 (centres unmarked) [Compound 14] — 3.1-fold higher, 1100 nM
- O=C(C(=O)N1CCCCC1C(=O)OCCCCC1CCCCC1)c1ccccc1 (centres unmarked) [Compound 15] — within 1.5-fold, 400 nM
- COC(=O)C(=O)N1CCCCC1C(=O)OCc1ccccc1 (centres unmarked) [Compound 16] — 230-fold higher, 80000 nM
- O=C(C(=O)N1CCCCC1C(=O)OCc1ccccc1)c1ccco1 (centres unmarked) [Compound 20] — 8.6-fold higher, 3000 nM
- COc1cc(C(=O)C(=O)N2CCCCC2C(=O)OCCCCc2ccccc2)cc(OC)c1OC (centres unmarked) [Compound 23] — 18-fold lower, 19 nM

Test system: hair growth
Test: not given
Details: topical, but not oral, application; cited from earlier work

For `C=CC[C@@H]1/C=C(\C)C[C@H](C)C[C@H](OC)[C@H]2O[C@@](O)(C(=O)C(=O)N3CCCC[C@H]3C(=O)O[C@H](/C(C)=C/[C@@H]3CC[C@@H](O)[C@H](OC)C3)[C@H](C)[C@@H](O)CC1=O)[C@H](C)C[C@@H]2OC` [FK506], the “stimulation of hair growth (in words)” value is listed as “stimulates hair growth in a dose-dependent manner”.
